Experimental data published in PMC7156458, “Synthetic biology based construction of biological activity-related library of fungal decalin-containing diterpenoid pyrones” (Nature Communications, 2020).

Biological target: Aβ42 (Homo sapiens, UniProt P05067)
Experiment: Th-T (thioflavin-T) assay of Aβ42 aggregation
Type: biochemical
Details: for Th-T fluorescence of Aβ42 with compound, mean of three wells (Fig. 7a source data): concentration 50, unit not given

Sequence of Aβ42 (P05067 672-713): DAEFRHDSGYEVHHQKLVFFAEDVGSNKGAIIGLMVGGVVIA

C=C1CCC2C(C)(CCC=C(C)C)C(O)CCC2(C)C1Cc1c(OC)oc(CO)c(C)c1=O (stereo not drawn) [Compound 12]
Th-T fluorescence of Aβ42 with compound, mean of three wells (Fig. 7a source data) (time-course reading M143): 1.6964 | Th-T fluorescence of Aβ42 with compound, mean of three wells (Fig. 7a source data) (time-course reading M144): 1.681 | Th-T fluorescence of Aβ42 with compound, mean of three wells (Fig. 7a source data) (time-course reading M145): 1.696 | Th-T fluorescence of Aβ42 (sheet Fig. 7a), mean of three wells (head suffix _10 (concentration 10), reading M63): 3.408 | Th-T fluorescence of Aβ42 (sheet Fig. 7a), mean of three wells (head suffix _10 (concentration 10), reading M64): 3.415 | Th-T fluorescence of Aβ42 (sheet Fig. 7a), mean of three wells (head suffix _10 (concentration 10), reading M65): 3.397 | Th-T fluorescence of Aβ42 (sheet Fig. 7a), mean of three wells (head suffix _10 (concentration 10), reading M66): 3.3918 | Th-T fluorescence of Aβ42 (sheet Fig. 7a), mean of three wells (head suffix _10 (concentration 10), reading M67): 3.364 | Th-T fluorescence of Aβ42 (sheet Fig. 7a), mean of three wells (head suffix _10 (concentration 10), reading M68): 3.364 | Th-T fluorescence of Aβ42 (sheet Fig. 7a), mean of three wells (head suffix _10 (concentration 10), reading M69): 3.344 | Th-T fluorescence of Aβ42 (sheet Fig. 7a), mean of three wells (head suffix _10 (concentration 10), reading M70): 3.357 | Th-T fluorescence of Aβ42 (sheet Fig. 7a), mean of three wells (head suffix _10 (concentration 10), reading M71): 3.333 | Th-T fluorescence of Aβ42 (sheet Fig. 7a), mean of three wells (head suffix _10 (concentration 10), reading M72): 3.332 | Th-T fluorescence of Aβ42 (sheet Fig. 7a), mean of three wells (head suffix _10 (concentration 10), reading M73): 3.302 | Th-T fluorescence of Aβ42 (sheet Fig. 7a), mean of three wells (head suffix _10 (concentration 10), reading M74): 3.307 | Th-T fluorescence of Aβ42 (sheet Fig. 7a), mean of three wells (head suffix _10 (concentration 10), reading M75): 3.295 | Th-T fluorescence of Aβ42 (sheet Fig. 7a), mean of three wells (head suffix _10 (concentration 10), reading M76): 3.265 | Th-T fluorescence of Aβ42 (sheet Fig. 7a), mean of three wells (head suffix _10 (concentration 10), reading M77): 3.239 | Th-T fluorescence of Aβ42 (sheet Fig. 7a), mean of three wells (head suffix _10 (concentration 10), reading M78): 3.245 | Th-T fluorescence of Aβ42 (sheet Fig. 7a), mean of three wells (head suffix _10 (concentration 10), reading M79): 3.216 | Th-T fluorescence of Aβ42 (sheet Fig. 7a), mean of three wells (head suffix _10 (concentration 10), reading M80): 3.214 | Th-T fluorescence of Aβ42 (sheet Fig. 7a), mean of three wells (head suffix _10 (concentration 10), reading M81): 3.199 | Th-T fluorescence of Aβ42 (sheet Fig. 7a), mean of three wells (head suffix _10 (concentration 10), reading M82): 3.17 | Th-T fluorescence of Aβ42 (sheet Fig. 7a), mean of three wells (head suffix _10 (concentration 10), reading M83): 3.151 | Th-T fluorescence of Aβ42 (sheet Fig. 7a), mean of three wells (head suffix _10 (concentration 10), reading M84): 3.157 | Th-T fluorescence of Aβ42 (sheet Fig. 7a), mean of three wells (head suffix _20 (concentration 20), reading M63): 2.111 | Th-T fluorescence of Aβ42 (sheet Fig. 7a), mean of three wells (head suffix _20 (concentration 20), reading M64): 2.103 | Th-T fluorescence of Aβ42 (sheet Fig. 7a), mean of three wells (head suffix _20 (concentration 20), reading M65): 2.121 | Th-T fluorescence of Aβ42 (sheet Fig. 7a), mean of three wells (head suffix _20 (concentration 20), reading M66): 2.113 | Th-T fluorescence of Aβ42 (sheet Fig. 7a), mean of three wells (head suffix _20 (concentration 20), reading M67): 2.119 | Th-T fluorescence of Aβ42 (sheet Fig. 7a), mean of three wells (head suffix _20 (concentration 20), reading M68): 2.108 | Th-T fluorescence of Aβ42 (sheet Fig. 7a), mean of three wells (head suffix _20 (concentration 20), reading M69): 2.09 | Th-T fluorescence of Aβ42 (sheet Fig. 7a), mean of three wells (head suffix _20 (concentration 20), reading M70): 2.126 | Th-T fluorescence of Aβ42 (sheet Fig. 7a), mean of three wells (head suffix _20 (concentration 20), reading M71): 2.116 | Th-T fluorescence of Aβ42 (sheet Fig. 7a), mean of three wells (head suffix _20 (concentration 20), reading M72): 2.113 | Th-T fluorescence of Aβ42 (sheet Fig. 7a), mean of three wells (head suffix _20 (concentration 20), reading M73): 2.112 | Th-T fluorescence of Aβ42 (sheet Fig. 7a), mean of three wells (head suffix _20 (concentration 20), reading M74): 2.11 | Th-T fluorescence of Aβ42 (sheet Fig. 7a), mean of three wells (head suffix _20 (concentration 20), reading M75): 2.104 | Th-T fluorescence of Aβ42 (sheet Fig. 7a), mean of three wells (head suffix _20 (concentration 20), reading M76): 2.0857 | Th-T fluorescence of Aβ42 (sheet Fig. 7a), mean of three wells (head suffix _20 (concentration 20), reading M77): 2.081 | Th-T fluorescence of Aβ42 (sheet Fig. 7a), mean of three wells (head suffix _20 (concentration 20), reading M78): 2.114 | Th-T fluorescence of Aβ42 (sheet Fig. 7a), mean of three wells (head suffix _20 (concentration 20), reading M79): 2.113 | Th-T fluorescence of Aβ42 (sheet Fig. 7a), mean of three wells (head suffix _20 (concentration 20), reading M80): 2.11 | Th-T fluorescence of Aβ42 (sheet Fig. 7a), mean of three wells (head suffix _20 (concentration 20), reading M81): 2.089 | Th-T fluorescence of Aβ42 (sheet Fig. 7a), mean of three wells (head suffix _20 (concentration 20), reading M82): 2.121 | Th-T fluorescence of Aβ42 (sheet Fig. 7a), mean of three wells (head suffix _20 (concentration 20), reading M83): 2.116 | Th-T fluorescence of Aβ42 (sheet Fig. 7a), mean of three wells (head suffix _20 (concentration 20), reading M84): 2.082 | Th-T fluorescence of Aβ42 (sheet Fig. 7a), mean of three wells (head suffix _50 (concentration 50), reading M63): 1.459 | Th-T fluorescence of Aβ42 (sheet Fig. 7a), mean of three wells (head suffix _50 (concentration 50), reading M64): 1.462 | Th-T fluorescence of Aβ42 (sheet Fig. 7a), mean of three wells (head suffix _50 (concentration 50), reading M65): 1.426 | Th-T fluorescence of Aβ42 (sheet Fig. 7a), mean of three wells (head suffix _50 (concentration 50), reading M66): 1.435 | Th-T fluorescence of Aβ42 (sheet Fig. 7a), mean of three wells (head suffix _50 (concentration 50), reading M67): 1.458 | Th-T fluorescence of Aβ42 (sheet Fig. 7a), mean of three wells (head suffix _50 (concentration 50), reading M68): 1.453 | Th-T fluorescence of Aβ42 (sheet Fig. 7a), mean of three wells (head suffix _50 (concentration 50), reading M69): 1.447 | Th-T fluorescence of Aβ42 (sheet Fig. 7a), mean of three wells (head suffix _50 (concentration 50), reading M70): 1.435 | Th-T fluorescence of Aβ42 (sheet Fig. 7a), mean of three wells (head suffix _50 (concentration 50), reading M71): 1.445 | Th-T fluorescence of Aβ42 (sheet Fig. 7a), mean of three wells (head suffix _50 (concentration 50), reading M72): 1.442
